Values joined by “and” are separate entries in the source; they are usually repeats but may differ in a detail not shown here. Equal values may be shown once. Inconclusive results and toxic doses are left out. The calls were made as follows: active = survival T/C of 150% or more; inactive = T/C below 125% in these data. Non-standard residues stand in square brackets, D forms with d. Residues, ends and D or L forms follow the SMILES beside them. ξ: configuration not given here. *: point of attachment. ξF = NC(Cc1ccccc1)C(=O)O; ClAc = O=C(CCl)*
Tested on: BDF1 mice, P388 leukemia ip, median survival T/C
Experiment: NCI In Vivo Anticancer Drug Screen. Data for tumor model P388 Leukemia (intraperitoneal) in B6D2F1 (BDF1) mice
Settings: endpoint: median survival time, higher = longer survival
Outline: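 Vehicle-dosed animals serve as the reference; survival of compound-dosed, tumour-implanted mice is divided by it.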

[1] = dose: 100.0 mg/kg/injection, schedule: Q04DX003 (ip), vehicle: Klucel (hydroxypropylcellulose) (HPC)
[2] = dose: 200.0 mg/kg/injection, schedule: Q04DX003 (ip), vehicle: Klucel (hydroxypropylcellulose) (HPC)
[3] = dose: 400.0 mg/kg/injection, schedule: Q04DX003 (ip), vehicle: Klucel (hydroxypropylcellulose) (HPC)
[4] = dose: 100.0 mg/kg/injection, schedule: Q04DX003 (ip), vehicle: saline with Tween-80
[5] = dose: 200.0 mg/kg/injection, schedule: Q04DX003 (ip), vehicle: saline with Tween-80
[6] = dose: 400.0 mg/kg/injection, schedule: Q04DX003 (ip), vehicle: saline with Tween-80
[7] = dose: 6.25 mg/kg/injection, schedule: Q01DX009 (ip), vehicle: saline
[8] = dose: 50.0 mg/kg/injection, schedule: Q01DX009 (ip), vehicle: saline with Tween-80
[9] = dose: 100.0 mg/kg/injection, schedule: Q01DX009 (ip), vehicle: saline with Tween-80
[10] = dose: 200.0 mg/kg/injection, schedule: Q01DX009 (ip), vehicle: saline with Tween-80
[11] = dose: 100.0 mg/kg/injection, schedule: Q04DX003 (ip), vehicle: water
[12] = dose: 200.0 mg/kg/injection, schedule: Q04DX003 (ip), vehicle: water
[13] = dose: 400.0 mg/kg/injection, schedule: Q04DX003 (ip), vehicle: water
[14] = dose: 100.0 mg/kg/injection, schedule: Q01DX009 (ip), vehicle: Klucel (hydroxypropylcellulose) (HPC)
[15] = dose: 200.0 mg/kg/injection, schedule: Q01DX009 (ip), vehicle: Klucel (hydroxypropylcellulose) (HPC)

Measured: T/C

O=[N+]([O-])c1cc([N+](=O)[O-])c(NN(c2ccccc2)c2cccc3ccccc23)c([N+](=O)[O-])c1
inactive: [1] 91 % of control | [2] 116 % of control | [3] 87 % of control

C=C(Br)CNCCCCCC
inactive: dose: 4.68 mg/kg/injection, schedule: Q04DX003 (ip), vehicle: Klucel (hydroxypropylcellulose) (HPC) 95 % of control | dose: 9.37 mg/kg/injection, schedule: Q04DX003 (ip), vehicle: Klucel (hydroxypropylcellulose) (HPC) 100 % of control | dose: 12.5 mg/kg/injection, schedule: Q01DX009 (ip), vehicle: Klucel (hydroxypropylcellulose) (HPC) 109 % of control | dose: 18.75 mg/kg/injection, schedule: Q04DX003 (ip), vehicle: Klucel (hydroxypropylcellulose) (HPC) 108 % of control | dose: 25.0 mg/kg/injection, schedule: Q01DX009 (ip), vehicle: Klucel (hydroxypropylcellulose) (HPC) 118 % of control | dose: 37.5 mg/kg/injection, schedule: Q04DX003 (ip), vehicle: Klucel (hydroxypropylcellulose) (HPC) 86 % of control | dose: 50.0 mg/kg/injection, schedule: Q01DX009 (ip), vehicle: Klucel (hydroxypropylcellulose) (HPC) 113 % of control

NC(=O)c1ccc(C(N)=O)cc1
inactive: [4] 100 % of control | [5] 104 % of control | [6] 100 % of control

O=c1ccc2cc(-c3c(Oc4cc5ccc(O)cc5oc4=O)ccc4ccc(=O)oc34)c(O)cc2o1
inactive: dose: 3.0 mg/kg/injection, schedule: Q01DX009 (ip), vehicle: saline 96 % of control | dose: 6.0 mg/kg/injection, schedule: Q01DX009 (ip), vehicle: saline 111 % of control | dose: 12.0 mg/kg/injection, schedule: Q01DX009 (ip), vehicle: saline 105 % of control

CC(=O)c1ccc[n+](Cc2c(Cl)cccc2Cl)c1
inactive: dose: 3.13 mg/kg/injection, schedule: Q01DX009 (ip), vehicle: saline 93 % of control | [7] 92 % of control | dose: 12.5 mg/kg/injection, schedule: Q01DX009 (ip), vehicle: saline 92 % of control

CC(=O)OC(C(=O)NCc1ccccc1)C(OC(C)=O)C(C)OS(C)(=O)=O (stereo not given)
inactive: [8] 98 % of control | [9] 106 % of control | [10] 89 % of control

C[CH2][Pb]([CH2]C)([CH2]C)[O]C(=O)COc1ccccc1
active: dose: 6.25 mg/kg/injection, schedule: Q01DX009 (ip), vehicle: saline with Tween-80 153 % of control and 168 % of control
inactive: dose: 0.75 mg/kg/injection, schedule: Q01DX009 (ip), vehicle: Klucel (hydroxypropylcellulose) (HPC) 118 % of control | dose: 0.75 mg/kg/injection, schedule: Q04DX003 (ip), vehicle: saline with Tween-80 107 % of control | dose: 1.5 mg/kg/injection, schedule: Q04DX003 (ip), vehicle: saline with Tween-80 117 % of control | dose: 1.56 mg/kg/injection, schedule: Q01DX009 (ip), vehicle: saline with Tween-80 115 % of control | dose: 3.9 mg/kg/injection, schedule: Q04DX003 (ip), vehicle: alcohol 112 % of control | dose: 6.0 mg/kg/injection, schedule: Q01DX009 (ip), vehicle: Klucel (hydroxypropylcellulose) (HPC) 117 % of control | dose: 6.0 mg/kg/injection, schedule: Q04DX003 (ip), vehicle: alcohol 120 % of control | dose: 9.0 mg/kg/injection, schedule: Q04DX003 (ip), vehicle: alcohol 105 % of control | dose: 12.0 mg/kg/injection, schedule: Q04DX003 (ip), vehicle: saline with Tween-80 107 % of control

O=C(CCl)NCC(=O)NC(Cc1ccccc1)C(=O)O (stereo not given) (ClAc-Gly-[ξF]-OH)
inactive: dose: 50.0 mg/kg/injection, schedule: Q04DX003 (ip), vehicle: saline with Tween-80 109 % of control | [4] 109 % of control | [5] 90 % of control

CCS(=O)(=O)OCCCCOS(=O)(=O)CC
inactive: [9] 108 % of control

O=[N+]([O-])c1ccc(N2CCCC(n3cccc3)C2)c([N+](=O)[O-])c1 (stereo not given)
inactive: [8] 109 % of control | [9] 115 % of control

COc1cccc(CCC(=O)O)c1OC
inactive: dose: 25.0 mg/kg/injection, schedule: Q04DX003 (ip), vehicle: water 109 % of control | dose: 50.0 mg/kg/injection, schedule: Q04DX003 (ip), vehicle: water 101 % of control | [11] 111 % of control | [12] 103 % of control | [13] 94 % of control

CCN1CCC2(CC1)COCc1ccccc12
inactive: dose: 50.0 mg/kg/injection, schedule: Q04DX002 (ip), vehicle: saline with Tween-80 107 % of control | dose: 100.0 mg/kg/injection, schedule: Q04DX002 (ip), vehicle: saline with Tween-80 91 % of control

O=C(OC1COC(n2c(=O)oc3ccc(F)cc32)C(OC(=O)c2ccccc2)C1OC(=O)c1ccccc1)c1ccccc1 (stereo not given)
inactive: [14] 104 % of control | [1] 113 % of control | [15] 100 % of control | [2] 100 % of control | dose: 400.0 mg/kg/injection, schedule: Q01DX009 (ip), vehicle: Klucel (hydroxypropylcellulose) (HPC) 90 % of control | [3] 95 % of control

C[C@]12C=CC(=O)C=C1CC[C@@H]1[C@@H]2[C@@H](O)C[C@@]2(C)[C@H]1CC[C@]2(O)C(=O)COC(=O)CCC(=O)O
inactive: dose: 66.0 mg/kg/injection, schedule: Q04DX003 (ip), vehicle: saline with Tween-80 113 % of control | [4] 113 % of control | dose: 150.0 mg/kg/injection, schedule: Q04DX003 (ip), vehicle: saline with Tween-80 108 % of control | [10] 118 % of control | dose: 400.0 mg/kg/injection, schedule: Q01DX009 (ip), vehicle: saline with Tween-80 118 % of control | [6] 104 % of control

Cc1cc(N(CCCl)CCCl)ccc1/C=N\Nc1nncn1N
active: dose: 35.0 mg/kg/injection, schedule: Q01DX007 (ip), vehicle: Klucel (hydroxypropylcellulose) (HPC) 157 % of control | dose: 50.0 mg/kg/injection, schedule: Q01DX007 (ip), vehicle: Klucel (hydroxypropylcellulose) (HPC) 175 % of control | dose: 75.0 mg/kg/injection, schedule: Q01DX007 (ip), vehicle: Klucel (hydroxypropylcellulose) (HPC) 211 % of control | dose: 132.0 mg/kg/injection, schedule: Q04DX003 (ip), vehicle: Klucel (hydroxypropylcellulose) (HPC) 213 % of control | dose: 132.0 mg/kg/injection, schedule: Q04DX003 (ip), vehicle: saline 163 % of control | [2] 218 % of control
inactive: dose: 45.0 mg/kg/injection, schedule: Q04DX003 (ip), vehicle: Klucel (hydroxypropylcellulose) (HPC) 120 % of control | [14] 118 % of control | [15] 90 % of control | dose: 300.0 mg/kg/injection, schedule: Q04DX003 (ip), vehicle: Klucel (hydroxypropylcellulose) (HPC) 122 % of control | dose: 300.0 mg/kg/injection, schedule: Q04DX003 (ip), vehicle: saline 90 % of control

CSc1nc2nc(Cl)c(Cl)nc2[nH]1
inactive: [7] 104 % of control | dose: 25.0 mg/kg/injection, schedule: Q01DX009 (ip), vehicle: saline 96 % of control | dose: 25.0 mg/kg/injection, schedule: Q04DX003 (ip), vehicle: saline 99 % of control | dose: 50.0 mg/kg/injection, schedule: Q04DX003 (ip), vehicle: saline 102 % of control and 109 % of control | dose: 100.0 mg/kg/injection, schedule: Q01DX009 (ip), vehicle: saline 88 % of control | dose: 100.0 mg/kg/injection, schedule: Q04DX003 (ip), vehicle: saline 95 % of control and 103 % of control | dose: 200.0 mg/kg/injection, schedule: Q01DX009 (ip), vehicle: saline 104 % of control | dose: 200.0 mg/kg/injection, schedule: Q04DX003 (ip), vehicle: saline 109 % of control | dose: 400.0 mg/kg/injection, schedule: Q04DX003 (ip), vehicle: saline 103 % of control

CC(=O)NC(C)C(=O)NC(CC(=O)O)C(=O)O (stereo not given)
inactive: dose: 50.0 mg/kg/injection, schedule: Q01DX005 (ip), vehicle: saline 97 % of control | dose: 100.0 mg/kg/injection, schedule: Q01DX005 (ip), vehicle: saline 100 % of control | dose: 200.0 mg/kg/injection, schedule: Q01DX005 (ip), vehicle: saline 103 % of control

CCOC(=O)N=C=O
inactive: dose: 100.0 mg/kg/injection, schedule: Q01DX009 (ip), vehicle: water 114 % of control | [11] 96 % of control | dose: 200.0 mg/kg/injection, schedule: Q01DX009 (ip), vehicle: water 110 % of control | [12] 99 % of control | [13] 107 % of control

From PubChem BioAssay AID328 (DTP/NCI, 2004)
